As usually defined, the IC50 is the point on the concentration scale where inhibition reaches its midpoint.

In the first experiment the target is DYRK1A (Homo sapiens (Human), UniProt Q13627). Briefly: DYRK1A Inhibition Assay. Type of experiment: biochemical. The conditions noted are these: Compounds of Formula (I); DYRK1A 1 nM, ATP 20 μM, Ser/Thr 18 peptide 2 μM, 90 minutes; read-out: DYRK1 IC50. The protocol: DYRK1A—Invitrogen #PV4105
• Ser/Thr 18 peptide—Invitrogen #PR8227U • Phos-Ser/Thr 18 peptide—Invitrogen #PR8229U • Assay plate—PerkinElmer #6007279 • ATP—Sigma #A7699-5G • Development reagent A—Invitrogen #PR5194B • Development buffer—Invitrogen #PR4876B Compound preparation • 1. Test compounds were diluted to 1 mM in DMSO • 2. Stock was further diluted 3-fold using Echo platform • 3. 100 nL of DMSO into Columns 1 and 24 and 100 nL of compounds dilutions to Columns 2-23 in a plate.
• 1. Add 5 μL enzyme & substrate mixture to each well in Column 2-23 and A24-H24 wells of the 384-well assay plate; • 2. Add 5 μL 0% Phosphorylation control to A1-H1 and I24-P24 wells of the assay plate; • 3. Add 5 μL 100% Phosphorylation control to I1-P1 wells of the assay plate; • 4. Spin the assay plate (1000 rpm, 1 minute @23° C.); • 5. Incubate enzyme with compounds for 15 minutes at 23° C.; • 6. Add 5 μL ATP solution to each well of the assay plate; • 7. Spin the plate (1000 rpm, 1 minute @23° C.); • 8. Incubate the assay plate for 90 minutes at 23° C.; • 9. Add 10 μL Development reagent A to each well of the assay plate; • 10. Centrifuge the plate at 1000 rpm about 15 seconds and seal a film over assay plate. Incubate the assay plate for 30 minutes at 23° C. • 11. Read assay plates on Envision (see Tables A-D).
Final Compound Concentrations
• Assay buffer: 50 mM Hepes pH7.5, 10 mM MgCl2, 1 mM EDTA, 0.01% Brij-35 • DYRK1A: 1 nM • ATP: 20 μM • Ser/Thr 18 peptide: 2 μM • Reaction time: 90 minutes
In the case of `Cn1c(=O)[nH]c2ncc(-c3ccc4cnsc4c3)cc21` [Compound 30, 6-(benzo[d]isothiazol-6-yl)-1-methyl-1,3-dihydro-2H-imidazo[4,5-b]pyridin-2-one], the IC50 is 0.1 to 1 µM.
In the case of `CN1CCN(c2nccc3c2cnc2[nH]cc(-c4ccncc4)c23)CC1` [Compound 43, 6-(4-methylpiperazin-1-yl)-1-(pyridin-4-yl)-3H-pyrrolo[2,3-c][2, 7]naphthyridine], the half-inhibitory concentration (IC50) is 0.01 to 0.1 µM.
The same measure, in the same setting: next, `CC(C)CN1CCC(c2cc3c(ncc4ccc(-c5cn[nH]c5)cc43)[nH]2)CC1` [Compound 89, 2-(1-isobutylpiperidin-4-yl)-8-(1H-pyrazol-4-yl)-3H-pyrrolo[2,3-c]isoquinoline]: 0.01 to 0.1 µM; `Cn1cc(-c2ccc3cnc4nc(C5CCOCC5)oc4c3c2)cn1` [Compound 82, 8-(1-methyl-1H-pyrazol-4-yl)-2-(tetrahydro-2H-pyran-4-yl)oxazolo[4,5-c]isoquinoline]: 0.1 to 1 µM; `Cn1cc(-c2ccc3cnc4occc4c3c2)cn1` [Compound 76, 8-(1-methyl-1H-pyrazol-4-yl)furo[2,3-c]isoquinoline]: 0.01 to 0.1 µM.
Same read-out and setting: the same measure for `O=C(O)c1ccc2c(cnc3c2cnn3CC2CCOCC2)c1` [Compound 71]: 0.1 to 1 µM; for `Cc1c(C2CCN(CC(C)(C)O)CC2)[nH]c2ncc3ccc(-c4cnn(C)c4)cc3c12` [Compound 56, 2-methyl-1-(4-(1-methyl-8-(1-methyl-1H-pyrazol-4-yl)-3H-pyrrolo[2,3-c]isoquinolin-2-yl)piperidin-1-yl)propan-2-ol]: ≤ 0.01 µM; for `Cn1cc(-c2ccc3cnc4ncn(C5CCC5)c4c3c2)cn1` [Compound 58, 1-cyclobutyl-8-(1-methyl-1H-pyrazol-4-yl)-1H-imidazo[4,5-c]isoquinoline]: 0.01 to 0.1 µM.
With `CN1CCN(C(=O)c2c[nH]c3ncc4ccc(-c5cccnc5)cc4c23)CC1` [Compound 10, (4-methylpiperazin-1-yl)(8-(pyridin-3-yl)-3H-pyrrolo[2,3-c]isoquinolin-1-yl)methanone], the IC50 was in the range of 0.1 to 1 µM.
The same measure, in the same setting: next, `Cc1c(C2CCN(CC(F)F)CC2)[nH]c2ncc3ccc(-c4cnn(C)c4)cc3c12` [Compound 55, 2-(1-(2,2-difluoroethyl)piperidin-4-yl)-1-methyl-8-(1-methyl-1H-pyrazol-4-yl)-3H-pyrrolo[2,3-c]isoquinoline]: ≤ 0.01 µM.
For the molecule `c1ncc(-c2ccc3cnc4cc(C5CCOCC5)sc4c3c2)o1` [Compound 73, 5-(2-(tetrahydro-2H-pyran-4-yl)thieno[3,2-c]isoquinolin-8-yl)oxazole], the 50% inhibitory concentration (IC50) is 0.01 to 0.1 µM.
Still for that read-out and setting: the same measure for `COC1CC(n2c(=O)[nH]c3ncc4ccc(-c5cnn(C)c5)cc4c32)C1` (stereo not drawn) [Compound 22, 1-(3-methoxycyclobutyl)-8-(1-methyl-1H-pyrazol-4-yl)-1,3-dihydro-2H-imidazo[4,5-c]isoquinolin-2-one]: 0.1 to 1 µM.
Turning to `Cn1cc(-c2ccc3cnc4c(c3c2)c([C@H]2CC[C@@H](C(=O)O)CC2)cn4C)cn1` [Compound 46, 4-(3-methyl-8-(1-methyl-1H-pyrazol-4-yl)-3H-pyrrolo[2,3-c]isoquinolin-1-yl)cyclohexane-1-carboxylic acid], the IC50 fell in the range of 0.01 to 0.1 µM.
As for `Cn1cc(-c2ccc3cnc4c(c3c2)c([C@H]2CC[C@H](N(C)C)CC2)cn4C)cn1` [Compound 50, (1r,4r)-N,N-dimethyl-4-(3-methyl-8-(1-methyl-1H-pyrazol-4-yl)-3H-pyrrolo[2,3-c]isoquinolin-1-yl)cyclohexan-1-amine], the IC50 was 0.01 to 0.1 µM.
With `CN1CCC(c2c(C(F)(F)F)[nH]c3ncc4cc(-c5cnco5)ccc4c23)CC1` [Compound 57, 5-(1-(1-methylpiperidin-4-yl)-2-(trifluoromethyl)-3H-pyrrolo[2,3-c]isoquinolin-7-yl)oxazole], the IC50 was > 1 µM.
`Cn1cc(-c2ccc3cnc4c(c3c2)CC(=O)N4)cn1` [Compound 85, 8-(1-methyl-1H-pyrazol-4-yl)-1,3-dihydro-2H-pyrrolo[2,3-c]isoquinolin-2-one]: the half-maximal inhibitory concentration (IC50) was in the range of 0.01 to 0.1 µM.
Still for that read-out and setting: next, `O=C(O)[C@H]1C[C@H](c2c[nH]c3ncc4cccnc4c32)C1` [Compound 37, (1r,3r)-3-(7H-pyrrolo[2,3-h][1,6]naphthyridin-9-yl)cyclobutane-1-carboxylic acid]: 0.01 to 0.1 µM.
`Cn1ccc2c3cc(-c4cnc(C#CC5CCOCC5)s4)ccc3cnc21` [Compound 60]: the concentration for half-maximal inhibition (IC50) fell in the range of 0.01 to 0.1 µM.
For `CC(C)CN1CCC(c2cc3c(ncc4ccc(-c5cncs5)cc43)[nH]2)CC1` [Compound 88, 5-(2-(1-isobutylpiperidin-4-yl)-3H-pyrrolo[2,3-c]isoquinolin-8-yl)thiazole], the 50% inhibitory concentration (IC50) is ≤ 0.01 µM.
As for `Fc1ccc(-c2c[nH]c3ncc4ccc(-c5cn[nH]c5)cc4c23)cc1` [Compound 3, 1-(4-fluorophenyl)-8-(1H-pyrazol-4-yl)-3H-pyrrolo[2,3-c]isoquinoline], the IC50 lay in the range of 0.01 to 0.1 µM.
Regarding `O=C(O)C1CC(c2c[nH]c3ncc4ccncc4c23)C1` (stereo not drawn) [Compound 35, 3-(7H-pyrrolo[2,3-c][2,6]naphthyridin-9-yl)cyclobutane-1-carboxylic acid], the half-inhibitory concentration (IC50) was in the range of 0.1 to 1 µM.
Still for that read-out and setting: next, `O=C(O)C1CC(c2c[nH]c3ncc4ncccc4c23)C1` (stereo not drawn) [Compound 34, 3-(3H-pyrrolo[3,2-f][1,7]naphthyridin-1-yl)cyclobutane-1-carboxylic acid]: 0.1 to 1 µM.
On to `Cn1cc(-c2ccc3cnc4[nH]cc(C5CCC(C(=O)N6CCNCC6)CC5)c4c3c2)cn1` (stereo not drawn) [Compound 28, (4-(8-(1-methyl-1H-pyrazol-4-yl)-3H-pyrrolo[2,3-c]isoquinolin-1-yl)cyclohexyl)(piperazin-1-yl)methanone], for which the IC50 is ≤ 0.01 µM.
Take `O=c1[nH]c2ncc(-c3ccc4cnsc4c3)cc2n1C1CCC1` [Compound 31, 6-(benzo[d]isothiazol-6-yl)-1-cyclobutyl-1,3-dihydro-2H-imidazo[4,5-b]pyridin-2-one]: the IC50 lay in the range of 0.1 to 1 µM.
`CC(C)CN1CCC(c2cc3c(ncc4ccc(-c5cncn5C)cc43)[nH]2)CC1` [Compound 87]: the concentration for half-maximal inhibition (IC50) fell in the range of 0.01 to 0.1 µM.
On to `OCc1ccc2c(cnc3[nH]cc(-c4ccc(F)cc4)c32)c1` [Compound 5], for which the IC50 is 0.01 to 0.1 µM.
For `O=C(O)[C@H]1C[C@@H](c2c[nH]c3ncc4cccnc4c32)C1` [Compound 36, (1s,3s)-3-(7H-pyrrolo[2,3-h][1,6]naphthyridin-9-yl)cyclobutane-1-carboxylic acid], the IC50 is 0.1 to 1 µM.
In the case of `Cn1cc(-c2ccc3cnc4[nH]cc(C(=O)N5CCNCC5)c4c3c2)cn1` [Compound 12, (8-(1-methyl-1H-pyrazol-4-yl)-3H-pyrrolo[2,3-c]isoquinolin-1-yl)(piperazin-1-yl)methanone], the IC50 was 0.01 to 0.1 µM.
Still for that read-out and setting: next, `O[C@@H]1CCN(c2cncc(-c3ccc4cnc5[nH]cc(C6CCC6)c5c4c3)c2)C1` [Compound 67, (R)-1-(5-(1-cyclobutyl-3H-pyrrolo[2,3-c]isoquinolin-8-yl)pyridin-3-yl)pyrrolidin-3-ol]: ≤ 0.01 µM.
Regarding `O[C@@H]1CCN(c2cncc(-c3ccc4cnc5[nH]c(C6CCC6)cc5c4c3)c2)C1` [Compound 70], the IC50 lay in the range of 0.01 to 0.1 µM.
With `Cn1cc(-c2ccc3c4c(ncc3c2)NC(=O)C4)cn1` [Compound 84, 7-(1-methyl-1H-pyrazol-4-yl)-1,3-dihydro-2H-pyrrolo[2,3-c]isoquinolin-2-one], the half-maximal inhibitory concentration (IC50) is > 1 µM.
Regarding `CNC(=O)C1CCC(c2c[nH]c3ncc4ccc(-c5cnn(C)c5)cc4c23)CC1` (stereo not drawn) [Compound 27], the half-inhibitory concentration (IC50) was ≤ 0.01 µM.
For `CN1CCC(c2cc3c(ncc4ccc(-c5cnn(C)c5)cc43)[nH]2)CC1` [Compound 40, 8-(1-methyl-1H-pyrazol-4-yl)-2-(1-methylpiperidin-4-yl)-3H-pyrrolo[2,3-c]isoquinoline], the IC50 is ≤ 0.01 µM.
The same measure, in the same setting: the same measure for `c1ncc(-c2ccc3cnc4c(c3c2)CCO4)s1` [Compound 75, 8-(thiazol-5-yl)-1,2-dihydrofuro[2,3-c]isoquinoline]: 0.01 to 0.1 µM.

The same experiment, now with this note: Compounds of Formula (II); DYRK1A 1 nM, ATP 20 μM, Ser/Thr 18 peptide 2 μM, 90 minutes; read-out: DYRK1 IC50.
In the case of `CN1CCC(c2nc3c(-c4cn(C)c5cnccc45)ccnc3[nH]2)CC1` [Compound 5], the IC50 is 0.01 to 0.1 µM.
As to `CN1CCC(c2cc3c(-c4cc5scnc5cn4)ccnc3[nH]2)CC1` [Compound 4], the IC50 fell in the range of 0.1 to 1 µM.

Still in this experiment, the particulars now being: Compounds of Formula (III); DYRK1A 1 nM, ATP 20 μM, Ser/Thr 18 peptide 2 μM, 90 minutes; read-out: DYRK1 IC50.
As to `CN1CCC(C#Cc2ncc(-c3ccc4cnn(C)c4c3)s2)CC1` [Compound 8], the IC50 lay within 0.05 to 0.2 µM.

The experiment is the same for the next values; noted with them: Compounds of Formula (IV); DYRK1A 1 nM, ATP 20 μM, Ser/Thr 18 peptide 2 μM, 90 minutes; read-out: DYRK1 IC50.
Regarding `COc1cc(-c2ccc3c4c([nH]c(=O)c3c2)CN(C)CC4)ccc1F` [Compound 12], the IC50 fell in the range of 1 to 5 µM.
For the molecule `O=c1oc2cc3cnccc3cc2n1CCc1nc2ccccc2[nH]1` [Compound 4], the concentration for half-maximal inhibition (IC50) is 1 to 5 µM.

(Values after patent US20250066349A1 (Prothena Biosciences Limited, priority 2021, published 2025).)
